Active and inactive are the calls of the source.
What was measured:
[1] = biological target: Apoptotic protease-activating factor 1 (Homo sapiens, UniProt O14727); test: SAR analysis of small molecule inhibitors of Apaf-1 in a Fluorescent assay.; type: functional; settings: read-out: IC50_Mean
[2] = biological target: Casein kinase I isoform alpha (Homo sapiens, UniProt P48729); type: functional
Focal adhesion kinase 1 = Focal adhesion kinase 1 (Homo sapiens, UniProt Q05397); type: functional;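 also: measured as one member of a kinome panel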
[3] = biological target: Dual specificity protein kinase CLK4 (Homo sapiens, UniProt Q9HAZ1); type: functional
Chain of Dual specificity protein kinase CLK4 (Q9HAZ1 whole entry): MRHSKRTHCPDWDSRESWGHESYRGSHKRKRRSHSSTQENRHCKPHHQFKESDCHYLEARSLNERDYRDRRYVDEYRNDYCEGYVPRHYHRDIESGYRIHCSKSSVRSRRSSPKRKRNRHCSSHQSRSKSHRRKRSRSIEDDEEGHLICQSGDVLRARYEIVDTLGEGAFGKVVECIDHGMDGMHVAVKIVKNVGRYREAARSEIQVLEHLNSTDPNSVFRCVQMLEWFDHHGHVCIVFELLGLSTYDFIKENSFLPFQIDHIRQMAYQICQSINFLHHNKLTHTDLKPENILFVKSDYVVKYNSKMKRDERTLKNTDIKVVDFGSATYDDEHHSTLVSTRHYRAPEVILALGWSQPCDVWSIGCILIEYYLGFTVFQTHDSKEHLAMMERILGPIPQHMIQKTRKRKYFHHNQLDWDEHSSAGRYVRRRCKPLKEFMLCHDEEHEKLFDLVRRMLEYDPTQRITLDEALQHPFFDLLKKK

HEK293 [4] = test: inhibitors of LMP1-driven NF-kB reporter, dose response, cell-based, HEK293, luciferase, cherry-pick (AID 588343); type: functional; settings: Homo sapiens
[5] = biological target: Latent membrane protein 1 (Human herpesvirus 4 (strain B95-8), UniProt P03230); test: TES1-eGFP NF-kB reporter inhibition versus Tet-On dsRED, dose response, selectivity assay for LMP1 NF-kB inhibitor project, imaging, HEK293T, dual-color eGFP/dsRED, cherry-picks (AID 588398); type: functional, cell-based
[6] = biological target: Photoreceptor-specific nuclear receptor (Homo sapiens, UniProt Q9Y5X4); type: functional, cell-based;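 also: CHO-S cells with Gal4-NCOR and VP16-NR2E3 two-hybrid luciferase reporter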
Chain of Photoreceptor-specific nuclear receptor (Q9Y5X4 whole entry, the tested form may be a part): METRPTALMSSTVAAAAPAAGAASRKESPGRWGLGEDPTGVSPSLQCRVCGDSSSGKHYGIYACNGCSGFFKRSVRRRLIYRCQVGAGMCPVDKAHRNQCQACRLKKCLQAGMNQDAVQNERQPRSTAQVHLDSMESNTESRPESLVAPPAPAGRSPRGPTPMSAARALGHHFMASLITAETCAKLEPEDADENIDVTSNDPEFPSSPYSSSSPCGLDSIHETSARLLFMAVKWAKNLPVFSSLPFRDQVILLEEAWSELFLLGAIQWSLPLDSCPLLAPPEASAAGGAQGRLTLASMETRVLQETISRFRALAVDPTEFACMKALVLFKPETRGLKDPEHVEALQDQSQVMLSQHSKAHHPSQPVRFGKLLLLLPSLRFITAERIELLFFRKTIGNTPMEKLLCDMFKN

HEK293 [7] = test: NOD1 signaling inhibitors, primary screen, cell-based, luminescence, uHTS (AID 1578); type: functional; settings: Homo sapiens
[8] = tested on: Streptococcus sp. 'group A'; test: growth inhibition of control SK(-) GAS strain, dose response, counter-screen for streptokinase expression inhibitor project, luminescence, kanamycin, BacTiterGlo, confirmation (AID 1900); type: functional, organism-based
BJ [9] = test: cytotoxicity toward BJ-TERT fibroblasts, dose response, cell-based, RAS-independent, luminescence (AID 1933); type: functional; settings: Homo sapiens
HEK293 [10] = test: cells; type: functional, cell-based; settings: Homo sapiens
Beta-galactosidase = Beta-galactosidase (Escherichia coli, UniProt Q8VNN2); test: PubChem AID 485352; type: functional
Chain of Beta-galactosidase (Q8VNN2 whole entry): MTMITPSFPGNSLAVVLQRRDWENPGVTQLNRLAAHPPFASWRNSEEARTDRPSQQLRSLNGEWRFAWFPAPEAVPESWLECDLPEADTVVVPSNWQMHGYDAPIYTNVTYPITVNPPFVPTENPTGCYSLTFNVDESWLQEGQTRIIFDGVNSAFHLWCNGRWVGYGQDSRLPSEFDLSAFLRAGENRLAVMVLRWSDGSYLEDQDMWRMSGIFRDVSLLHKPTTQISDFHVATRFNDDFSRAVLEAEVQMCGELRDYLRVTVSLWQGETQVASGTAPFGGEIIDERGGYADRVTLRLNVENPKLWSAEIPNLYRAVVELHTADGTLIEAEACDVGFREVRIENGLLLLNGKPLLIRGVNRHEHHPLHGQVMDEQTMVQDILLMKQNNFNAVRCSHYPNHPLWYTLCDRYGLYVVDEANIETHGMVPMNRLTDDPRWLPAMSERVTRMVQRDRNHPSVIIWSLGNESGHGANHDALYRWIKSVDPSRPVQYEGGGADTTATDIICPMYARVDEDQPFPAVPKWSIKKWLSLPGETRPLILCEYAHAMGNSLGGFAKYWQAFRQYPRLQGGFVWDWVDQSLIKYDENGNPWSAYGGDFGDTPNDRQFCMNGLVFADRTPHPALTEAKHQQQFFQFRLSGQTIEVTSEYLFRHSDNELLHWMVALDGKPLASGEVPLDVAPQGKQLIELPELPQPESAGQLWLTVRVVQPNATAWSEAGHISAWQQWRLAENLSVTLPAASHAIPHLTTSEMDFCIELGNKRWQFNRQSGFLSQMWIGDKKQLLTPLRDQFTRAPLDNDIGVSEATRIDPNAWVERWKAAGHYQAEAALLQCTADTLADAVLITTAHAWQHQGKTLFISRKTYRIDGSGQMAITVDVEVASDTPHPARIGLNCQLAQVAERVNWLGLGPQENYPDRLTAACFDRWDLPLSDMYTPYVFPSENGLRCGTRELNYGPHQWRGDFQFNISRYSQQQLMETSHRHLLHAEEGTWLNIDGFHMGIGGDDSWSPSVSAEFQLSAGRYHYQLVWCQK

Vero = test: host cell cytotoxicity of antiviral hits, dose response, cytotoxicity control for West Nile virus antiviral project, secondary assay (AID 1650); type: functional; settings: Chlorocebus sabaeus
Streptokinase A = biological target: T1, Streptokinase A (Streptococcus pyogenes serotype M1, UniProt P10520); test: S. pyogenes streptokinase expression inhibitors, potency, dose response, plasminogen activation absorbance, OD405 (AID 1914); type: functional, Streptococcus pyogenes M1 GAS;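 also: secreted streptokinase activity via plasminogen activation per viability signal from cell pellet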
T1 sequence (P10520 whole entry): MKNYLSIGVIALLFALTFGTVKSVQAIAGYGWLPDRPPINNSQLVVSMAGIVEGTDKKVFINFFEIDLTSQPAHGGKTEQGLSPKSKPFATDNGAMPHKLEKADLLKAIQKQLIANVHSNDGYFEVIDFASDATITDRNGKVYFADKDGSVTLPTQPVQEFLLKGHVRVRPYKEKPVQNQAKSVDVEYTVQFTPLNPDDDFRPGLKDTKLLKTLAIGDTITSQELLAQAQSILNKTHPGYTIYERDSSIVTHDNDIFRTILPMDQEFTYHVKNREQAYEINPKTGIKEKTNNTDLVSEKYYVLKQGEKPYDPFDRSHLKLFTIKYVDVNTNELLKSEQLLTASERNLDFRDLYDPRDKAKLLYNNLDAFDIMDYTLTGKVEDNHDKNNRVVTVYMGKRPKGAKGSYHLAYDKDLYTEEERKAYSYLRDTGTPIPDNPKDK

BJ [11] = test: cells; type: functional, cell-based; settings: Homo sapiens
HEK293 [12] = test: cells; type: functional, cell-based; settings: Homo sapiens; remark: listed apart in the source
[13] = biological target: Nucleotide-binding oligomerization domain-containing protein 2 (Homo sapiens, UniProt Q9HC29); test: NOD2 signaling inhibitors, cell-based, luminescence, uHTS, HEK293 (AID 1566); type: functional
Chain of Nucleotide-binding oligomerization domain-containing protein 2 (Q9HC29 whole entry, the tested form may be a part): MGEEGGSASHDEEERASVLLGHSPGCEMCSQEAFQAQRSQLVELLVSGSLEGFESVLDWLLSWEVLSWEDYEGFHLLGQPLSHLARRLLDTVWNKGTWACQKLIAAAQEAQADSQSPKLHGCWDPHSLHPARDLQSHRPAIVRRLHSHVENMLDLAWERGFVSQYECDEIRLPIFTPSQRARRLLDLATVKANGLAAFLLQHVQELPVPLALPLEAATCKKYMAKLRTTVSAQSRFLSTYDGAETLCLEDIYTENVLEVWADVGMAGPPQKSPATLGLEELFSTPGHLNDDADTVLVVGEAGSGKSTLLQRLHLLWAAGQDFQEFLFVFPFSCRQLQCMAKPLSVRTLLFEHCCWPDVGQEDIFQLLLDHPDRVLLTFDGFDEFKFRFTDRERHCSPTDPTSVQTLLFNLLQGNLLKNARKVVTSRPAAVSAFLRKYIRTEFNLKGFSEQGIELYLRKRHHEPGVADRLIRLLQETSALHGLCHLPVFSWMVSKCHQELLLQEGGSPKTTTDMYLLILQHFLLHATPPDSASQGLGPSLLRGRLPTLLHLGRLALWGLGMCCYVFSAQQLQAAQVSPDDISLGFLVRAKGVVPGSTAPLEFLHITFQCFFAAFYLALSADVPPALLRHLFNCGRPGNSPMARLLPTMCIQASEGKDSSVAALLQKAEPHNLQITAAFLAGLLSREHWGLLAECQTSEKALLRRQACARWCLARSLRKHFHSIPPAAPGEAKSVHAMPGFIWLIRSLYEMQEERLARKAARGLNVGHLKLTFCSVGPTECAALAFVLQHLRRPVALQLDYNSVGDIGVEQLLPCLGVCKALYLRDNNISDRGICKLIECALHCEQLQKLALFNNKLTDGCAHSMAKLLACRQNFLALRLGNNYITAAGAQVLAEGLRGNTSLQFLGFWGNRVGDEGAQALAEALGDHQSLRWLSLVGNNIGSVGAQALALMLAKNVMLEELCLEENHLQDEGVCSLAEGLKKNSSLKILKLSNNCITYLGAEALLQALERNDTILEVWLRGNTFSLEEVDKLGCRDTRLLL

HEK293 [14] = test: NOD2 signaling inhibitors in MDP-stimulated cells, cell-based, uHTS, luminescence (AID 2001); type: functional; settings: Homo sapiens
HEK293 [15] = test: cells; type: functional, cell-based; settings: Homo sapiens; remark: listed apart in the source
[16] = Luminescence-based dose response cell-based high throughput screening assay for cytotoxic compounds using the IEC-6 intestinal epithelial cell line. [Related pubchem assays: 1858 (Summary AID.), 1825 (Counterscreen.), 1907 (Confirmation screen.)]; type: functional
[17] = biological target: Type-1 angiotensin II receptor (Homo sapiens, UniProt P30556); test: AT1 receptor antagonists, dose response, selectivity assay for APJ receptor antagonist project, cell-based, uHTS hits (AID 463214); type: functional;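 also: antagonist potency against angiotensin II stimulated AT1 response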
Chain of Type-1 angiotensin II receptor (P30556 whole entry): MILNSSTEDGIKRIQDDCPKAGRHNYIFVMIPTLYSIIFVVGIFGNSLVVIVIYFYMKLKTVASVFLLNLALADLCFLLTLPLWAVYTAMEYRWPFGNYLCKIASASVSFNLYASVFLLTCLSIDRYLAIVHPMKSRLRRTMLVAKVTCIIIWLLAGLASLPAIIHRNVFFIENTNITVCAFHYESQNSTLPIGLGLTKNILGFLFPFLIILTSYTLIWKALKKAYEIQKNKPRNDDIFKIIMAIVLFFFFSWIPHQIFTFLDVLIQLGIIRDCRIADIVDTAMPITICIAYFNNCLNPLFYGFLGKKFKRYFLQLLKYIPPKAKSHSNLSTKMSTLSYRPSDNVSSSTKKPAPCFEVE

BJ [18] = test: cytotoxicity toward BJ-TERT-LT-ST fibroblasts, dose response, cell-based, RAS-independent, luminescence (AID 1935); type: functional; settings: Homo sapiens;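 also: BJ fibroblasts immortalized with TERT plus LT and ST oncogenes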
[19] = cytotoxicity toward DRD oncogenic fibroblasts, dose response, cell-based, non-viral oncogenic, luminescence (AID 1934); type: functional; settings: Homo sapiens
Streptococcus = test: Group A Streptococcus viability loss, dose response, counter-screen for streptokinase expression inhibitor project, luminescence, BacTiterGlo (AID 1915); type: functional, organism-based;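 also: potency for reduction of bacterial viability or growth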
[20] = biological target: Glucose-6-phosphate 1-dehydrogenase (Homo sapiens, UniProt P11413); test: human G6PD enzyme inhibitors, dose response, selectivity assay for P. falciparum G6PD inhibitor project, biochemical, fluorescence (AID 504792); type: functional
HEK293 [21] = test: cytotoxicity in HEK293T NF-kB-Luc cells, SAR follow-up, cytotoxicity control for NF-kB activator project, cell-based, resazurin fluorescence (AID 493251); type: functional; settings: Homo sapiens
Jurkat = test: SAR Analysis of small molecule inhibitors of both B-cell and T-cell specific antigen receptor-induced NF-kB activation in a Jurkat cell line using a luminescence assay. [Related pubchem assays (depositor defined):AID435003, AID435022, AID465, AID489029]; type: functional, cell-based; settings: Homo sapiens
BJ [22] = test: cytotoxicity toward Ras-transformed BJeLR fibroblasts, dose response, cell-based, alamar blue fluorescence, cherrypicked samples (AID 2631); type: functional; settings: Homo sapiens;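 also: confirmatory dose-response assay in RAS-dependent BJ fibroblasts engineered with TERT, LT and ST, with cytotoxicity read by fluorescence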
HEK293 [23] = test: SAR Analysis of small molecule inhibitors of both B-cell and T-cell specific antigen receptor-induced NF-kB activation in a HEK-293T cell line using a luminescence assay. [Related pubchem assays (depositor defined):AID435003, AID435022, AID465, AID489019, AID489029]; type: functional, cell-based; settings: Homo sapiens
Paired box protein Pax-8 = Paired box protein Pax-8 (Homo sapiens, UniProt Q06710); test: inhibitors of PAX8-driven TPO luciferase reporter, dose response, RMG-I cells, cherry-pick (AID 687027); type: functional, cell-based;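 also: luciferase reporter driven by Pax8 target thyroperoxidase promoter measured by SteadyGlo luminescence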
[24] = PAX2 cell-based inhibition, dose response, selectivity assay for PAX8 inhibitor project, plate reader, dry powder samples (AID 743048); type: functional;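 also: HEK293 cells carrying a WT1 promoter luciferase reporter driven by expressed Pax2; potency is for inhibition of Pax2 driven reporter signal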
[25] = NIH:OVCAR-3 ovarian cancer cell cytotoxicity, dose response, PAX8 inhibitor project, plate reader, dry powder samples (AID 743044); type: functional, cell-based
[26] = PAX5 activity inhibitors, dose response, selectivity assay for PAX8 inhibitor project, cell-based, plate reader, dry powder samples (AID 743047); type: functional;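 also: HEK293 cells carrying a Pax5 driven CD19 promoter luciferase reporter; potency of inhibitors that lower reporter luminescence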
[27] = IGROV1 ovarian cancer cell cytotoxicity, dose response, PAX8 inhibitor project, plate reader, dry powder samples (AID 743043); type: functional, cell-based; settings: IGROV-1
[28] = cytotoxicity in OVCAR4 cells, dose response, cytotoxicity control for PAX8 inhibitor project, cell-based, plate reader, dry powder, SA11 (AID 743150); type: functional; settings: OVCAR-4
[29] = cytotoxicity in COV434 cells, dose response, cytotoxicity control for PAX8 inhibitor project, cell-based, plate reader, dry powder, SA7 (AID 743145); type: functional
[30] = cytotoxicity in OV-90 ovarian cancer cells, dose response, PAX8 inhibitor project, cell-based, plate reader, dry powder, SA8 (AID 743149); type: functional
[31] = cytotoxicity dependent on PAX8, dose response, cell-based, plate reader, dry powder (AID 743049); type: functional
INS1 [32] = test: protection of INS-1E cells from cytokine death, dose response, ATP luminescence, dry powder (AID 488844); type: functional, cell-based; settings: Rattus norvegicus
[33] = inhibitors of cytokine-induced nitrite release, dose response, cell-based, Griess absorbance, INS-1E, dry powder, set 3 (AID 488870); type: functional; settings: Rattus norvegicus
INS1 [34] = test: inhibitors of cytokine-induced nitrite release, dose response, cell-based, Griess absorbance, INS-1E, dry powder, set 2 (AID 488868); type: functional; settings: Rattus norvegicus
INS1 [35] = test: protection from cytokine-induced mitochondrial depolarization, dose response, cell-based, INS-1E, JC-1 fluorescence ratio, dry powder (AID 488931); type: functional; settings: Rattus norvegicus

Chain of Casein kinase I isoform alpha (P48729 whole entry, canonical isoform): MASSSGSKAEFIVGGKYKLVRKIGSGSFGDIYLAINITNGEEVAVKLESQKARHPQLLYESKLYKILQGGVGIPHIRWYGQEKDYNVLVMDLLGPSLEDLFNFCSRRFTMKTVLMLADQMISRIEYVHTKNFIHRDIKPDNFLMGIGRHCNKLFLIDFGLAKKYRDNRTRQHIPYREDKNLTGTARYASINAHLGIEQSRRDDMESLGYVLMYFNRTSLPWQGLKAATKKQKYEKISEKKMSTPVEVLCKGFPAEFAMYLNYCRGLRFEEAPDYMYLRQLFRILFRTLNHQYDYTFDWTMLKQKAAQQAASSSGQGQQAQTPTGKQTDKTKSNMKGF
Chain of Apoptotic protease-activating factor 1 (O14727 whole entry, canonical isoform): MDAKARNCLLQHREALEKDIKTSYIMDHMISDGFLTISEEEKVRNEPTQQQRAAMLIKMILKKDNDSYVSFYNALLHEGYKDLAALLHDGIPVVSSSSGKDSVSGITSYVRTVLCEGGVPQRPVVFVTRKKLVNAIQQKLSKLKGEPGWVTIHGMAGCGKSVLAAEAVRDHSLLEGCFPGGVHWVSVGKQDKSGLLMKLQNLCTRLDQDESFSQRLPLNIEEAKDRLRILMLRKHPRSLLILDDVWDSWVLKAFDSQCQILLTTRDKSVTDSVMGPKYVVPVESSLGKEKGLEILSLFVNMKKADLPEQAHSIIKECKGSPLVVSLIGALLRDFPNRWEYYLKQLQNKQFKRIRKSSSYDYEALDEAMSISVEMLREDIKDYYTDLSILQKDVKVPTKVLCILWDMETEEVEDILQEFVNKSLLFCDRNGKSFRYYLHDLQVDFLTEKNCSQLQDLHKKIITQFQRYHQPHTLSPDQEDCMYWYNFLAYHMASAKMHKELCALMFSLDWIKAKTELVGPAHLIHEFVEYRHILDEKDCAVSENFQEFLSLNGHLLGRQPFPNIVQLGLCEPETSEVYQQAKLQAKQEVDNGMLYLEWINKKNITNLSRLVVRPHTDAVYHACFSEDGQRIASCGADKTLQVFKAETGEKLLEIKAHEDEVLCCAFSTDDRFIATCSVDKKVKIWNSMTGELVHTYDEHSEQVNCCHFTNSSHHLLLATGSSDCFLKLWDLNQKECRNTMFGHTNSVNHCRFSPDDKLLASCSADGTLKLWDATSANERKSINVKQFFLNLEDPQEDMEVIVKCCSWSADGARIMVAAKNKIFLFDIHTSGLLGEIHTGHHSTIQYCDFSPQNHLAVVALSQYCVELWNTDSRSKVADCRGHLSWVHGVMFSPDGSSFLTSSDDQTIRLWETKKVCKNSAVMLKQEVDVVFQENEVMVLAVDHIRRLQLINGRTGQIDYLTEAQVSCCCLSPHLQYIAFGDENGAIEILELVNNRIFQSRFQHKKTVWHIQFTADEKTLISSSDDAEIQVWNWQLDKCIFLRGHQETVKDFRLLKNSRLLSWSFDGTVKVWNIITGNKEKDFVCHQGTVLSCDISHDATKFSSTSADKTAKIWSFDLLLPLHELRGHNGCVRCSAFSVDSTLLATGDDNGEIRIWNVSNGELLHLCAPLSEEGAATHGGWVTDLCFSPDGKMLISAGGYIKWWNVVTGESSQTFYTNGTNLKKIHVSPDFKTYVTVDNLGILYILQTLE

CCN(CC)CCOC(=O)c1ccc(N/C=C(\C#N)c2nc(-c3ccc(Cl)c(Cl)c3)cs2)cc1
IC50 [1]: 6.88 µM (active)

Cc1cc(C(C)Nc2ccccc2)c2nc(N3CCOCC3)cc(=O)n2c1 (configuration not stated)
Ki [2]: 2 µM (active)
Ki (Focal adhesion kinase 1): 2.51 µM (active)
Ki [3]: 2.51 µM (active)

S=C(NN=Cc1ccccn1)Nc1ccccn1
AC50 (HEK293 [4]): 21.5 µM (active)
AC50 [5]: 10.7 µM (active)
IC50 [6]: 7.61 µM (active)

O=S(=O)(Nc1cccc2cccnc12)c1ccccc1
EC50 (HEK293 [7]): > 20 µM (inactive)
EC50 [8]: 3.27 µM (active)
EC50 (BJ [9]): 28.1 µM (active)
IC50 (HEK293 [10]): 2.74 µM (active)
EC50 (Beta-galactosidase): > 40 µM (inactive)
CC50 (Vero): 7.94 µM (active)
EC50 (Streptokinase A): > 150 µM (not active)
EC50 (BJ [11]): 17.2 µM (active)
IC50 (HEK293 [12]): 11.7 µM (active)
EC50 [13]: > 20 µM (inactive)
IC50 (HEK293 [14]): 1.83 µM (inactive)
IC50 (HEK293 [15]): > 20 µM (inactive)
IC50 [16]: 2.08 µM (active)
IC50 [17]: 2.75 µM (active)
EC50 (BJ [18]): > 150 µM (not active)
EC50 [19]: 34 µM (active)
EC50 (Streptococcus): 12.3 µM (active)
IC50 [20]: 51.9 µM (inactive)
IC50 (HEK293 [21]): > 80 µM (inactive)
IC50 (Jurkat): 0.89 µM (active)
EC50 (BJ [22]): 0.572 µM (active)
IC50 (HEK293 [23]): 44.8 µM (inactive)
AC50 (Paired box protein Pax-8): 6.46 µM (active)
AC50 [24]: 32.4 µM (active)
AC50 [25]: 38.9 µM (active)
AC50 [26]: 33.2 µM (active)
AC50 [27]: 26.3 µM (active)
AC50 [28]: 21.4 µM (active)
AC50 [29]: 19.3 µM (active)
AC50 [30]: 15.3 µM (active)
AC50 [31]: 20.7 µM (active)

COc1ccc(S(=O)(=O)N(C)C[C@@H]2Oc3c(NC(=O)Nc4cccc5ccccc45)cccc3C(=O)N([C@@H](C)CO)C[C@H]2C)cc1F
AC50 (INS1 [32]): 23.2 µM (active)
AC50 [33]: 60.8 µM (active)
AC50 (INS1 [34]): 26.7 µM (active)
AC50 (INS1 [35]): > 195 µM (inactive)

Reference: ChEMBL document CHEMBL1201862, “PubChem BioAssay data set” (2004)
